Data published in ChEMBL document CHEMBL1909046, “DrugMatrix in vitro pharmacology data”.

Legend:
[1] = target: T1, Muscarinic acetylcholine receptor M4 (Homo sapiens, UniProt P08173); format: cell membranes, CHO-K1, Membrane; details: cho-k1; further: in other assays of this panel Not Active means under 50% inhibition at 10 µM
T1 sequence (P08173 whole entry): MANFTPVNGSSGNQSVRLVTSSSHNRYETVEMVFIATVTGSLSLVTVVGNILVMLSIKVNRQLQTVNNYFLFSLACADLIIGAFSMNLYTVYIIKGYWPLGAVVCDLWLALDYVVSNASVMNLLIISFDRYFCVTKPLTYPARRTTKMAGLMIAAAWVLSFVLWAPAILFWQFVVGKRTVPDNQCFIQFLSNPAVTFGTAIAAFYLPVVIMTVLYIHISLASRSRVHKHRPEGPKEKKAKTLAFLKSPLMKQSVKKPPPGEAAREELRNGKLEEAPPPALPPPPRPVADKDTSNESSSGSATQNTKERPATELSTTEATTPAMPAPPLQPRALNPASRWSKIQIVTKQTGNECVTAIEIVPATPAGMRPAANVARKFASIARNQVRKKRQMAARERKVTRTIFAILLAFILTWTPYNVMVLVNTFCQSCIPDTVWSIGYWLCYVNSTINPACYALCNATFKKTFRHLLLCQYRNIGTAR

[2] = target: C-C chemokine receptor type 5 (Homo sapiens, UniProt P51681); format: cell membranes, Membrane; details: hek293; further: in other assays of this panel Not Active means under 50% inhibition at 10 µM
[3] = target: 5-hydroxytryptamine receptor 4 (Cavia porcellus, UniProt O70528); format: cell membranes, Dunkin-Hartley, Striatum, Membrane; further: in other assays of this panel Not Active means under 50% inhibition at 10 µM
[4] = DRUGMATRIX: Glutamate, NMDA, Phencyclidine radioligand binding (ligand: [3H] TCP); format: cell membranes, Rattus norvegicus, Wistar, Cerebral cortex, Membrane; details: Not Active = under 50% inhibition at 10 µM
[5] = target: C-C chemokine receptor type 2 (Homo sapiens, UniProt P41597); format: cell membranes, CHO-K1, Membrane; details: cho-k1; further: in other assays of this panel Not Active means under 50% inhibition at 10 µM
[6] = DRUGMATRIX: Calcium Channel Type L, Benzothiazepine radioligand binding (ligand: [3H] Diltiazem); format: cell membranes, Rattus norvegicus, Wistar, Brain, Membrane; details: Not Active = under 50% inhibition at 10 µM
B2 bradykinin receptor = target: T2, B2 bradykinin receptor (Homo sapiens, UniProt P30411); format: cell membranes, Membrane; details: chem-1; further: in other assays of this panel Not Active means under 50% inhibition at 10 µM
T2 sequence (P30411 whole entry): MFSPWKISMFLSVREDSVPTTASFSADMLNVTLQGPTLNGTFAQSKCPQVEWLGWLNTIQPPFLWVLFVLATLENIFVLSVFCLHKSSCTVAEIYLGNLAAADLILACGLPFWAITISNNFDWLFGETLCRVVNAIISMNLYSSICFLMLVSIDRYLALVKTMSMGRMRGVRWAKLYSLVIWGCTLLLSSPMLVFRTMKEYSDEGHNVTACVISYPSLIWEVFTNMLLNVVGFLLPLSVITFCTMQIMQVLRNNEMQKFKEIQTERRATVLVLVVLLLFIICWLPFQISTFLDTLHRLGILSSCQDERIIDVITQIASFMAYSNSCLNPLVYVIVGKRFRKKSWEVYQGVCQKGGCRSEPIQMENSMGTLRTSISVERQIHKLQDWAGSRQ

D(1A) dopamine receptor = D(1A) dopamine receptor (Homo sapiens, UniProt P21728); test: DRUGMATRIX: Dopamine D1 radioligand binding (ligand: [3H] SCH-23390); format: cell membranes, CHO, Membrane; details: cho; Not Active = under 50% inhibition at 10 µM
[7] = target: Matrix metalloproteinase-9 (Homo sapiens, UniProt P14780); format: cell-based
[8] = target: T3, Receptor-type tyrosine-protein phosphatase C (Homo sapiens, UniProt P08575); parameters: species or system Escherichia coli
T3 sequence (P08575 whole entry): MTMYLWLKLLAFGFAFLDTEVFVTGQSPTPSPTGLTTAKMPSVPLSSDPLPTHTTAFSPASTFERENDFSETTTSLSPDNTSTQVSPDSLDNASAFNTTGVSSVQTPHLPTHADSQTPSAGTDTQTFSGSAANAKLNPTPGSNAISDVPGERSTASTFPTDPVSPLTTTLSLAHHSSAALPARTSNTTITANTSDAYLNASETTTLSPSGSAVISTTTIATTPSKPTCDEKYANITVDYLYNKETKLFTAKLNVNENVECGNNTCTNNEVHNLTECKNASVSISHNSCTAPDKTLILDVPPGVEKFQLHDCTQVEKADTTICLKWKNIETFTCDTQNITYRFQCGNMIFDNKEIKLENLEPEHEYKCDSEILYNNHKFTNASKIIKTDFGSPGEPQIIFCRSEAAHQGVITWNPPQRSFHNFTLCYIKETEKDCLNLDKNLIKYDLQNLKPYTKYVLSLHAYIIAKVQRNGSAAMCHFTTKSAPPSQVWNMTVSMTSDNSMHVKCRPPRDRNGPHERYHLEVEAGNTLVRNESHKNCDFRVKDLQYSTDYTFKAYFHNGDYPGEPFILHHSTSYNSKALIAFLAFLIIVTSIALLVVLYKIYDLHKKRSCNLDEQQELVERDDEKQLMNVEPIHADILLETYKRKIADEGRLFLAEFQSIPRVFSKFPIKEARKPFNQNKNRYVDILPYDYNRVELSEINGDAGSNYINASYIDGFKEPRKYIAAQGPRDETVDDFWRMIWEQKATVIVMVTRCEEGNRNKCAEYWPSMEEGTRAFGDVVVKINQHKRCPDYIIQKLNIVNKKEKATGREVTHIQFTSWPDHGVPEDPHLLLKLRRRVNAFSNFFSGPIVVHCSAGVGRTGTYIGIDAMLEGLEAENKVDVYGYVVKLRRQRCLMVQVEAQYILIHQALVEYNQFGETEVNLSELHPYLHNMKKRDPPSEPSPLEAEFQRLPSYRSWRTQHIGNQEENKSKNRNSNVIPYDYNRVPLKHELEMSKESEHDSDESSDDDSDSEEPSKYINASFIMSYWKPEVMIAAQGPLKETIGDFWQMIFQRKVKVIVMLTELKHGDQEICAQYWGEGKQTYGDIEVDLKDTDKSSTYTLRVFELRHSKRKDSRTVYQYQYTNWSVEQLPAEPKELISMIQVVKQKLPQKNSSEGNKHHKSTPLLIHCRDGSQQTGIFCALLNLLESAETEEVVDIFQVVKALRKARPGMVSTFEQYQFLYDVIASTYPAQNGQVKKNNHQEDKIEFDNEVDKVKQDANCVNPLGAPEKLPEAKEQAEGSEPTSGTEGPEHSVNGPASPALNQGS

Cytochrome P450 2E1 = Cytochrome P450 2E1 (Homo sapiens, UniProt P05181); details: bti-tn-5b1-4; further: in other assays of this panel Not Active means under 50% inhibition at 10 µM
[9] = target: Sodium-dependent dopamine transporter (Homo sapiens, UniProt Q01959); test: DRUGMATRIX: Dopamine Transporter radioligand binding (ligand: [125I] RTI-55); format: cell membranes, CHO-K1, Membrane; details: cho-k1; Not Active = under 50% inhibition at 10 µM
Estrogen receptor beta = Estrogen receptor beta (Homo sapiens, UniProt Q92731); details: sf9; further: in other assays of this panel Not Active means under 50% inhibition at 10 µM
Estrogen receptor beta, sequence (Q92731 whole entry): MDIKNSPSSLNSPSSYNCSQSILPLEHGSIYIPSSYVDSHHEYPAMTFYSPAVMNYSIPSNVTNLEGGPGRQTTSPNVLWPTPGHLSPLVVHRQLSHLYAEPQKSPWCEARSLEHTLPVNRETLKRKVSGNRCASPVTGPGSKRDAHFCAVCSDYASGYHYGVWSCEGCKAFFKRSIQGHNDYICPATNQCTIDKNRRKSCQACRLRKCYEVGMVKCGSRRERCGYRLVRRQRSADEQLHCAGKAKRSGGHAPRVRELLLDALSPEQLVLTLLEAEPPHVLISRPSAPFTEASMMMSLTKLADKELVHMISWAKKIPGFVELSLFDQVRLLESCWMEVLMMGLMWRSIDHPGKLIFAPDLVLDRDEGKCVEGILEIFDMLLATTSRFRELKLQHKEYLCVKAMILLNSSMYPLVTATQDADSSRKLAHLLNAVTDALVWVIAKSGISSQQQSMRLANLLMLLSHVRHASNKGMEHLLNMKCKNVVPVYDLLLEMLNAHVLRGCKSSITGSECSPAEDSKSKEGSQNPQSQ

5-hydroxytryptamine receptor 4, sequence (O70528 whole entry): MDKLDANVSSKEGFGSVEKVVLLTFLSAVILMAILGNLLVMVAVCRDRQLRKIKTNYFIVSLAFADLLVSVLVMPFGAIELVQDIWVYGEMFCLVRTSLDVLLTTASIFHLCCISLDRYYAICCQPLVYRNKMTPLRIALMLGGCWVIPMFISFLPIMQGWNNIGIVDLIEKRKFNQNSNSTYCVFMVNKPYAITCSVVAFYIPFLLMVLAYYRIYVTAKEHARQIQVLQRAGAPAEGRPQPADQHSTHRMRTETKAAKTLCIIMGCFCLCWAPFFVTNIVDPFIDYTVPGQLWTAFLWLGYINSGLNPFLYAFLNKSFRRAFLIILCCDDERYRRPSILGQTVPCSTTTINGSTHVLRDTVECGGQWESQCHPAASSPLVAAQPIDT
D(1A) dopamine receptor, sequence (P21728 whole entry): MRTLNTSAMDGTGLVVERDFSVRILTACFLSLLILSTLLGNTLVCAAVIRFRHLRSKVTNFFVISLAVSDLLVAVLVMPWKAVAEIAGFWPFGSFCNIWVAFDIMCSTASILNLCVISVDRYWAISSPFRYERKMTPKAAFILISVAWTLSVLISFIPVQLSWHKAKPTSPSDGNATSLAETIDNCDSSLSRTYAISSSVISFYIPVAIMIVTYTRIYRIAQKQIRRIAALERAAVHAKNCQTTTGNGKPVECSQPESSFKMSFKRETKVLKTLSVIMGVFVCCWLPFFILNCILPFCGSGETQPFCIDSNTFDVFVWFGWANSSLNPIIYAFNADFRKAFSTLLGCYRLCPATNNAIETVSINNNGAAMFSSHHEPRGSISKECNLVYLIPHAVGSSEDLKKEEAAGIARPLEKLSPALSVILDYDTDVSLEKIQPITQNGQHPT
Cytochrome P450 2E1, sequence (P05181 whole entry): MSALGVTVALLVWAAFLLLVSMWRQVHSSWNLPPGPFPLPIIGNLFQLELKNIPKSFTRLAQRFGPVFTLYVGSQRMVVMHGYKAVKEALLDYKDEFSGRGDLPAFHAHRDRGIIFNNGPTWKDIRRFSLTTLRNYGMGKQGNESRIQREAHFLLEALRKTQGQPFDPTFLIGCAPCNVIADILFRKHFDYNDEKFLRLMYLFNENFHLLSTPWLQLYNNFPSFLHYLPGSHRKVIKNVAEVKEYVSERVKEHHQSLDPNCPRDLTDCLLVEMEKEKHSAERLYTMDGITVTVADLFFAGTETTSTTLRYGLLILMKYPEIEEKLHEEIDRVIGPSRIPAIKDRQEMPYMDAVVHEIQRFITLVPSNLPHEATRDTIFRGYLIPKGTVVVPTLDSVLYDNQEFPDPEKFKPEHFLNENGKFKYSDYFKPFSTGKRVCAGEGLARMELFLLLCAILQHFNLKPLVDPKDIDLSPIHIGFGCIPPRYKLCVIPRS
C-C chemokine receptor type 5, sequence (P51681 whole entry): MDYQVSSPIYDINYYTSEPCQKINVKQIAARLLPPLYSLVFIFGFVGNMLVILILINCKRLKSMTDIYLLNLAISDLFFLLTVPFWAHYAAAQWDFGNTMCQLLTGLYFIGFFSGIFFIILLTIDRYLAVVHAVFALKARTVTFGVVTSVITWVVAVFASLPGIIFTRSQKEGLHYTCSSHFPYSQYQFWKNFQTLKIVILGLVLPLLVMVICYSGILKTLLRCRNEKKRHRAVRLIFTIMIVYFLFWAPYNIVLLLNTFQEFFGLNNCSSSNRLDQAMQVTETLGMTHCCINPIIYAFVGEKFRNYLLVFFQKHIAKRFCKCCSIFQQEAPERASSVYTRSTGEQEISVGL
C-C chemokine receptor type 2, sequence (P41597 whole entry): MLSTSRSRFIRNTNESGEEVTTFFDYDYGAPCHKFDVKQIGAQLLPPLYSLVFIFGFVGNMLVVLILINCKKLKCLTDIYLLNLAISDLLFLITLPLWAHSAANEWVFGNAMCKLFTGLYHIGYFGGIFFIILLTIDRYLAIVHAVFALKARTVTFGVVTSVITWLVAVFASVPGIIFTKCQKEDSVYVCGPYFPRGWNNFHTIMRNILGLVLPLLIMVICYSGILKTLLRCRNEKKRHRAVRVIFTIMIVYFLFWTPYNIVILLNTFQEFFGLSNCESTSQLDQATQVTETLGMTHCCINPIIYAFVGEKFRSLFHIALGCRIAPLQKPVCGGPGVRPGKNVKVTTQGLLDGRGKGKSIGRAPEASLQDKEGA
Matrix metalloproteinase-9, sequence (P14780 whole entry): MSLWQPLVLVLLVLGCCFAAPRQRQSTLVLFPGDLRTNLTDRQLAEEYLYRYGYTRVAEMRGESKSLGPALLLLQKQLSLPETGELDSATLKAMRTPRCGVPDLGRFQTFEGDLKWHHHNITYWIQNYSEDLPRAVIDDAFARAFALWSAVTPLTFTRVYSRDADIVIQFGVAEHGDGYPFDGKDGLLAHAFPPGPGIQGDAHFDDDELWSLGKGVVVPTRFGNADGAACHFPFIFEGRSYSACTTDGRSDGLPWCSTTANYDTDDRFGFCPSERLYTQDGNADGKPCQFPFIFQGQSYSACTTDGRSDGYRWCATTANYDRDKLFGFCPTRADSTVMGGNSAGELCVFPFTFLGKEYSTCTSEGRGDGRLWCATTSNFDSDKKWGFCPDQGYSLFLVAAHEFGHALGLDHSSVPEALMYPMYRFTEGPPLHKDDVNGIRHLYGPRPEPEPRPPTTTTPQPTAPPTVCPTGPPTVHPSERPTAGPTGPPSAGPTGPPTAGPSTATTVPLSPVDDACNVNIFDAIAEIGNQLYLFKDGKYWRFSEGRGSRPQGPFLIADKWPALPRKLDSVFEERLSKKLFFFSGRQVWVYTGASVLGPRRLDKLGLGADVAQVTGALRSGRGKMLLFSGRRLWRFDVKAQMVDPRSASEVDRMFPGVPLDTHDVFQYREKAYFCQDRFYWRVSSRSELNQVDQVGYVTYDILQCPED
Sodium-dependent dopamine transporter, sequence (Q01959 whole entry): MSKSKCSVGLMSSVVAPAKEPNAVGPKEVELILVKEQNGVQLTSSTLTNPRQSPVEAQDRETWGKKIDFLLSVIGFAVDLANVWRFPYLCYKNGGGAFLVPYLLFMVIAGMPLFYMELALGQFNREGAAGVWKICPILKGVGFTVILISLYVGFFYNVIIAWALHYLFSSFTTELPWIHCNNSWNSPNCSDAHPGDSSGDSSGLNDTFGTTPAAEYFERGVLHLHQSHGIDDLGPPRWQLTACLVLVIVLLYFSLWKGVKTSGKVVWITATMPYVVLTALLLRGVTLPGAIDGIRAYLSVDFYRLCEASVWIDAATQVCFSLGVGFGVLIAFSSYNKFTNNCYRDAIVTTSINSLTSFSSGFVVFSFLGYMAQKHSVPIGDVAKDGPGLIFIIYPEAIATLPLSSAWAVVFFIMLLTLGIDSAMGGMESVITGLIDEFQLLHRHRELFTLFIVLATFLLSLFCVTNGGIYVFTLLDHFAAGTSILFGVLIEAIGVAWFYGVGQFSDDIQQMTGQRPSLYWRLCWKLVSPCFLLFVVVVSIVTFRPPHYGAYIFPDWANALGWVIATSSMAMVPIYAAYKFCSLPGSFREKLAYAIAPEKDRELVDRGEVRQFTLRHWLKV

OCc1ccccc1 [BENZYL ALCOHOL]
Not Active: IC50 [1] | IC50 [2] | IC50 [3] | IC50 [4] | Ki [4] | IC50 [5] | IC50 [6] | Ki [6] | IC50 (B2 bradykinin receptor) | IC50 (D(1A) dopamine receptor) | IC50 [7] | IC50 [8] | IC50 (Cytochrome P450 2E1) | Ki (Cytochrome P450 2E1) | IC50 [9] | IC50 (Estrogen receptor beta)

CCCC[C@@H](CC)COC(=O)c1ccccc1C(=O)OC[C@@H](CC)CCCC [BIS(2-ETHYLHEXYL)PHTHALATE]
Not Active: IC50 [1] | IC50 [2] | IC50 [3] | IC50 [4] | Ki [4] | IC50 [5] | IC50 [6] | Ki [6] | IC50 (B2 bradykinin receptor) | IC50 (D(1A) dopamine receptor) | IC50 [7] | IC50 [8] | IC50 (Cytochrome P450 2E1) | Ki (Cytochrome P450 2E1) | IC50 [9] | IC50 (Estrogen receptor beta)

Brc1ccccc1 [BROMOBENZENE]
Not Active: IC50 [1] | IC50 [2] | IC50 [3] | IC50 [4] | Ki [4] | IC50 [5] | IC50 [6] | Ki [6] | IC50 (B2 bradykinin receptor) | IC50 (D(1A) dopamine receptor) | IC50 [7] | IC50 [8] | IC50 (Cytochrome P450 2E1) | Ki (Cytochrome P450 2E1) | IC50 [9] | IC50 (Estrogen receptor beta)

CCCCOC(=O)c1ccc(N)cc1 [BUTAMBEN]
Not Active: IC50 [1] | IC50 [2] | IC50 [3] | IC50 [4] | Ki [4] | IC50 [5] | IC50 [6] | Ki [6] | IC50 (B2 bradykinin receptor) | IC50 (D(1A) dopamine receptor) | IC50 [7] | IC50 [8] | IC50 (Cytochrome P450 2E1) | Ki (Cytochrome P450 2E1) | IC50 [9] | IC50 (Estrogen receptor beta)

CC[C@@]1(O)C(=O)OCc2c1cc1n(c2=O)Cc2cc3ccccc3nc2-1 [CAMPTOTHECIN]
Not Active: IC50 [1] | IC50 [2] | IC50 [3] | IC50 [4] | Ki [4] | IC50 [5] | IC50 [6] | Ki [6] | IC50 (B2 bradykinin receptor) | IC50 (D(1A) dopamine receptor) | IC50 [7] | IC50 [8] | IC50 (Cytochrome P450 2E1) | Ki (Cytochrome P450 2E1) | IC50 [9] | IC50 (Estrogen receptor beta)

COCc1c(C(C)C)nc(C(C)C)c(/C=C/[C@@H](O)C[C@@H](O)CC(=O)O)c1-c1ccc(F)cc1 [CERIVASTATIN]
Not Active: IC50 [1] | IC50 [2] | IC50 [3] | IC50 [4] | Ki [4] | IC50 [5] | IC50 [6] | Ki [6] | IC50 (B2 bradykinin receptor) | IC50 (D(1A) dopamine receptor) | IC50 [7] | IC50 [8] | IC50 (Cytochrome P450 2E1) | Ki (Cytochrome P450 2E1) | IC50 [9] | IC50 (Estrogen receptor beta)

CC(=O)O[C@]1(C(C)=O)CC[C@H]2[C@@H]3C=C(Cl)C4=CC(=O)CC[C@]4(C)[C@H]3CC[C@@]21C [CHLORMADINONE ACETATE]
Not Active: IC50 [1] | IC50 [2] | IC50 [3] | IC50 [4] | Ki [4] | IC50 [5] | IC50 [6] | Ki [6] | IC50 (B2 bradykinin receptor) | IC50 (D(1A) dopamine receptor) | IC50 [7] | IC50 [8] | IC50 (Cytochrome P450 2E1) | Ki (Cytochrome P450 2E1) | IC50 [9] | IC50 (Estrogen receptor beta)
